Reference: PubChem BioAssay (NCI)
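These data come from cells grown in 96-well plates and exposed to compound for 48 hours at five concentrations. Definition used: TGI = concentration required for complete inhibition of growth.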

Assays:
Assay in all cases: NCI tumour cell line growth inhibition, 48 h
[1] = tested on: 786-0 renal
[2] = tested on: A498 renal
[3] = tested on: A549 NSCLC
[4] = tested on: ACHN renal
[5] = tested on: CAKI-1 renal
[6] = tested on: COLO 205 colon
[7] = tested on: DLD-1 colon
[8] = tested on: DMS 114 small cell lung
[9] = tested on: DMS 273 small cell lung
[10] = tested on: EKVX NSCLC
[11] = tested on: HCC-2998 colon
[12] = tested on: HCT-116 colon
[13] = tested on: HCT-15 colon
[14] = tested on: HL-60(TB) leukemia
[15] = tested on: HOP-18 NSCLC
[16] = tested on: HOP-62 NSCLC
[17] = tested on: HOP-92 NSCLC
[18] = tested on: HT29 colon
[19] = tested on: IGROV1 ovarian
[20] = tested on: K-562 leukemia
[21] = tested on: KM12 colon
[22] = tested on: KM20L2 colon
[23] = tested on: LXFL 529 NSCLC
[24] = tested on: M14 melanoma
[25] = tested on: M19-MEL melanoma
[26] = tested on: MALME-3M melanoma
[27] = tested on: MOLT-4 leukemia
[28] = tested on: NCI-H226 lung
[29] = tested on: NCI-H23 lung
[30] = tested on: NCI-H460 lung
[31] = tested on: NCI-H522 lung
[32] = tested on: OVCAR-3 ovarian
[33] = tested on: OVCAR-4 ovarian
[34] = tested on: OVCAR-5 ovarian
[35] = tested on: OVCAR-8 ovarian
[36] = tested on: RPMI-8226 leukemia
[37] = tested on: RXF 393 renal
[38] = tested on: RXF-631 renal
[39] = tested on: SF-268 CNS
[40] = tested on: SF-295 CNS
[41] = tested on: SF-539 CNS
[42] = tested on: SK-MEL-2 melanoma
[43] = tested on: SK-MEL-5 melanoma
[44] = tested on: SK-OV-3 ovarian
[45] = tested on: SN12C renal
[46] = tested on: SNB-19 CNS
[47] = tested on: SNB-75 CNS
[48] = tested on: SNB-78 CNS
[49] = tested on: SR leukemia
[50] = tested on: SW-620 colon
[51] = tested on: TK-10 renal
[52] = tested on: U251 CNS
[53] = tested on: UACC-257 melanoma
[54] = tested on: UACC-62 melanoma
[55] = tested on: UO-31 renal
[56] = tested on: XF 498 CNS

## Cc1ccc(S(=O)(=O)NC2(C=O)CCC(C(C)(C)C)CC2)cc1 (stereo unspecified)
[1]
  TGI: > 100 µM
[2]
  TGI: > 100 µM
[3]
  TGI: > 100 µM
[4]
  TGI: > 100 µM
[5]
  TGI: > 100 µM
[6]
  TGI: 73.3 µM
[7]
  TGI: > 100 µM
[8]
  TGI: 62.8 µM
[9]
  TGI: > 100 µM
[10]
  TGI: > 100 µM
[11]
  TGI: > 100 µM
[12]
  TGI: 68.8 µM
[13]
  TGI: > 100 µM
[14]
  TGI: 42.9 µM
[15]
  TGI: > 100 µM
[16]
  TGI: > 100 µM
[17]
  TGI: 99.8 µM
[18]
  TGI: > 100 µM
[19]
  TGI: > 100 µM
[20]
  TGI: 70.8 µM
[21]
  TGI: 84.5 µM
[22]
  TGI: 75.4 µM
[23]
  TGI: > 100 µM
[24]
  TGI: > 100 µM
[25]
  TGI: 73.8 µM
[26]
  TGI: > 100 µM
[27]
  TGI: 41.3 µM
[28]
  TGI: > 100 µM
[29]
  TGI: 85.6 µM
[30]
  TGI: > 100 µM
[31]
  TGI: 54.9 µM
[32]
  TGI: > 100 µM
[33]
  TGI: > 100 µM
[34]
  TGI: > 100 µM
[35]
  TGI: > 100 µM
[36]
  TGI: 46.3 µM
[37]
  TGI: > 100 µM
[38]
  TGI: > 100 µM
[39]
  TGI: > 100 µM
[40]
  TGI: 94.9 µM
[41]
  TGI: > 100 µM
[42]
  TGI: > 100 µM
[43]
  TGI: 47.2 µM
[44]
  TGI: > 100 µM
[45]
  TGI: 68.7 µM
[46]
  TGI: > 100 µM
[47]
  TGI: > 100 µM
[48]
  TGI: > 100 µM
[49]
  TGI: 36.9 µM
[50]
  TGI: > 100 µM
[51]
  TGI: > 100 µM
[52]
  TGI: > 100 µM
[53]
  TGI: > 100 µM
[54]
  TGI: > 100 µM
[55]
  TGI: > 100 µM
[56]
  TGI: > 100 µM
